Experimental findings from patent US8399521B2, “Methods of treating skin with aromatic skin-active ingredients” (Mary Kay Inc., priority 2008, dated 2013) are described below.

The subject of one assay is TNF-α. Description: TNF-α secretion by PMA-treated human keratinocytes (ELISA). As to conditions: 0.01% test compound; PMA 10 ng/ml, 6 hours; % change in secreted TNF-α, negative = reduction; Table 2. In kind it is cell-based. The text has this:
Tumor necrosis factor alpha (TNF-α) assay: The prototype ligand of the TNF superfamily, TNF-α, is a pleiotropic cytokine that plays a central role in inflammation. Increase in its expression is associated with an up regulation in pro-inflammatory activity. This bioassay analyzes the effect of compounds on the production of TNF-α by human epidermal keratinocytes. The endpoint of this assay is a spectrophotometric measurement that reflects the presence of TNF-α and cellular viability. The assay employs the quantitative sandwich enzyme immunoassay technique whereby a monoclonal antibody specific for TNF-α has been pre-coated onto a microplate. Standards and samples are pipetted into the wells and any TNF-α present is bound by the immobilized antibody. After washing away any unbound substances, an enzyme-linked polyclonal antibody specific for TNF-α is added to the wells. Following a wash to remove any unbound antibody-enzyme reagent, a substrate solution is added to the wells and color develops in proportion to the amount of TNF-α bound in the initial step using a microplate reader for detection at 450 nm. The color development is stopped and the intensity of the color is measured.
Subconfluent normal human adult keratinocytes (Cascade Biologics) cultivated in EpiLife standard growth medium (Cascade Biologics) at 37° C. in 5% CO2, were treated with PMA (10 ng/ml, Sigma Chemical, #P1585-1MG) and test compounds for 6 hours. […] Following incubation, cell culture medium was collected and the amount of TNF-a secretion quantified using a sanwhich enzyme linked immuno-sorbant assay (ELISA) from R&D Systems ([…]). Following all manufacturer instructions, medium from treated cells was incubated with antibodies directed against human TNF-α which were bound to microtiter plates. The amount of TNF-α protein was quantified by comparison of optical density units to standard concentrations of purified TNF-α protein. Values are calculated as % change in the amount of TNF-α protein secreted between control and treated samples. […]

For the next assay, the target named is T1, 15-lipoxygenase (Glycine max, UniProt P08170).
T1 construct: purchased Cayman Chemical 760700
T1 sequence (P08170 1-839): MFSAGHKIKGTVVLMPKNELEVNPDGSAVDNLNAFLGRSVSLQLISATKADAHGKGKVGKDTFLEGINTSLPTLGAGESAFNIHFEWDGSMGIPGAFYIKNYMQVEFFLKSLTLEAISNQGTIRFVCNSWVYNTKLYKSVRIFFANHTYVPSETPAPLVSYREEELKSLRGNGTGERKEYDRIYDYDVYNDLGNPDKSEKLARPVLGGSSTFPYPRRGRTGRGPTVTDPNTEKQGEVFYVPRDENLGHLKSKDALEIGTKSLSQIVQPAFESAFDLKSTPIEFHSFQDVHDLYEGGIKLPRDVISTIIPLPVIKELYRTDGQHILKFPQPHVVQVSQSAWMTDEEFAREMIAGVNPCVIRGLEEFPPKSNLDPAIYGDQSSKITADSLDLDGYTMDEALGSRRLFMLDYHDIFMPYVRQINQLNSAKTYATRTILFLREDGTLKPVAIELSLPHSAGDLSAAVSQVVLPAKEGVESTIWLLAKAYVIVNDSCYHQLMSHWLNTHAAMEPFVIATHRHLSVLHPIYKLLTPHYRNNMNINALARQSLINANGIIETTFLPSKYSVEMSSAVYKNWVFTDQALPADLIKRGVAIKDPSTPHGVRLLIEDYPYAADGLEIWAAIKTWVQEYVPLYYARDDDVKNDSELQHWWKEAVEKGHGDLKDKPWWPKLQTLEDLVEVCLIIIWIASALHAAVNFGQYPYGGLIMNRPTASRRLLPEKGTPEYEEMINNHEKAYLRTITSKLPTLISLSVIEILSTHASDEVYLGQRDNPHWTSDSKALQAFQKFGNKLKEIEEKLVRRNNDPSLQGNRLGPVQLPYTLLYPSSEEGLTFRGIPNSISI
The assay is described as follows: Lipoxygenase (LO) inhibition assay. Format: biochemical. The settings on record: 0.1% test compound; negative = inhibition vs non-treated control; Table 2. The method, then:
Lipoxygenase (LO) assay: An in vitro lipoxygenase (LO) inhibition assay. LOs are non-heme iron-containing dioxygenases that catalyze the addition of molecular oxygen to fatty acids. Linoleate and arachidonate are the main substrates for LOs in plants and animals. […] This assay provides an accurate and convenient method for screening lipoxygenase inhibitors by measuring the hydroperoxides generated from the incubation of a lipoxygenase (5-, 12-, or 15-LO) with arachidonic acid.
Following incubation, arachidonic acid was added to initiate the reaction and mixtures incubated for an additional 10 min at room temperature. Colorimetric substrate was added to terminate catalysis and color progression was evaluated by fluorescence plate reading at 490 nm. The percent inhibition of lipoxyganse activity was calculated compared to non-treated controls to determine the ability of test compounds to inhibit the activity of purified enzyme.

Consider “3-(4-ethylphenyl)-2,2-dimethylpropanal and 3-(2-ethylphenyl)-2,2-dimethylpropanal [Floralozone]”, for which the “TNF-α Inhibition (0.01%)” value in the assay on TNF-α is −33.20%.
Regarding `CCCCCC/C=C/C(=O)OC` [Neofolione, methyl non-2-enoate], the “LO Inhibition (0.1%)” value at 15-lipoxygenase was −27.46%. Further, the “TNF-α Inhibition (0.01%)” value in the assay on TNF-α is on record as −53.90%.
For the compound `CCCCCCCCC(C)C=O` (stereo not shown) [Aldehyde C-11 MOA, 2-methyldecanal], the “TNF-α Inhibition (0.01%)” value in the assay with TNF-α is on record as −38.68%.
